Test results reported in PubChem BioAssay (NCI).
Several values for one entry are separate records, joined by “and”; a condition that tells them apart may be missing. Identical values can stand only once.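 Dose response: 5 concentrations. Exposure: 48 h. Format: 96-well plates. Endpoint: linear interpolation; highest concentration if not reached. The concentration for 50% growth inhibition is given as GI50. TGI is the concentration that stops growth completely.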

Experiments:
Assay in all cases: NCI-60 cell line screen, 48 h
SNB-19 CNS = system: SNB-19 CNS
KM20L2 colon = system: KM20L2 colon
EKVX NSCLC = system: EKVX NSCLC
DLD-1 colon = system: DLD-1 colon
SNB-75 CNS = system: SNB-75 CNS
COLO 205 colon = system: COLO 205 colon
SK-OV-3 ovarian = system: SK-OV-3 ovarian
786-0 renal = system: 786-0 renal
PC-3 prostate = system: PC-3 prostate
HCT-15 colon = system: HCT-15 colon

| Compound | TGI (SNB-19 CNS) | TGI (KM20L2 colon) | TGI (EKVX NSCLC) | TGI (DLD-1 colon) | TGI (SNB-75 CNS) | TGI (COLO 205 colon) | TGI (SK-OV-3 ovarian) | TGI (786-0 renal) | GI50 (SNB-19 CNS) | TGI (PC-3 prostate) | GI50 (KM20L2 colon) | GI50 (HCT-15 colon) | TGI (HCT-15 colon) | GI50 (EKVX NSCLC) | GI50 (DLD-1 colon) | GI50 (SNB-75 CNS) | GI50 (COLO 205 colon) | GI50 (SK-OV-3 ovarian) | GI50 (786-0 renal) |
| --- | --- | --- | --- | --- | --- | --- | --- | --- | --- | --- | --- | --- | --- | --- | --- | --- | --- | --- | --- |
| COc1ccc(CN2C(=O)C(Cc3cc(OC)c(OC)c(C)c3OC)N(C(=O)OC(C)C)C(=O)/C2=C/c2cc(OC)c(OC)c(C)c2OC)cc1 (stereo not drawn) | > 100 µM | > 100 µM | > 100 µM | > 100 µM | > 100 µM | > 100 µM | > 100 µM | > 100 µM |  |  |  |  |  |  |  |  |  |  |  |
| O=c1oc2c3ccc4ccccc4c3n(CCN3CCOCC3)c2c2ccccc12 | > 100 µM | > 100 µM | > 100 µM | > 100 µM | > 100 µM | > 100 µM | > 100 µM | > 100 µM |  |  |  |  |  |  |  |  |  |  |  |
| NC(=O)c1nnn(Cc2cc(Cl)c(C(=O)c3ccc(Cl)cc3)c(Cl)c2)c1N | > 9.09 µM and 30.5 µM | > 9.09 µM and 17.4 µM | > 9.09 µM and 37.5 µM | > 9.09 µM and 30.8 µM | > 9.09 µM and 48 µM | > 9.09 µM and 48 µM | > 52.9 µM | > 9.09 µM and 43 µM | > 9.09 µM | > 50.2 µM | 2.79 µM | > 9.09 µM | > 9.09 µM and 39.7 µM | > 9.09 µM | 12.7 µM | > 9.09 µM | > 9.09 µM | > 9.09 µM | > 9.09 µM |
| COc1ccc2nc3cc(Cl)ccc3c(NCCC(=O)OCC(O)C(O)C(O[C@H](C)C(=O)NC(C)C(=O)NC(CCC(N)=O)C(=O)OCc3ccccc3)C(C=O)NC(C)=O)c2c1 (stereo partly drawn) | 62.1 µM | 32.7 µM | 36.9 µM | 33.6 µM | 31.7 µM | 32.6 µM | 33 µM | 31.9 µM |  |  |  |  | 52.4 µM |  |  |  |  |  |  |
| O=C1OC(c2ccccc2)C2CC3CC4(CCC3CN12)OCCO4 (stereo not drawn) | > 100 µM | > 100 µM | > 100 µM |  | > 100 µM | > 100 µM | > 100 µM | > 100 µM |  |  |  |  | > 100 µM |  |  |  |  |  |  |
| COC(=O)CCC(=O)CC(=O)C(=O)Nc1ccc(F)cc1 | > 100 µM | > 100 µM | > 100 µM | > 100 µM | > 100 µM | > 100 µM | > 100 µM | > 100 µM |  |  |  |  | > 100 µM |  |  |  |  |  |  |
| N#Cc1ccc(/C=N\N2C(=O)c3ccccc3C2=O)cc1 | > 100 µM | > 100 µM | > 100 µM | > 100 µM | > 100 µM |  |  | > 100 µM |  |  |  |  | > 100 µM |  |  |  |  |  |  |
| Cc1ccccc1N=Cc1ccc(N(CCC#N)S(=O)(=O)c2ccccc2)cc1 | > 100 µM | > 100 µM | > 100 µM | > 100 µM | > 100 µM | > 100 µM | > 100 µM | > 100 µM |  |  |  |  | > 100 µM |  |  |  |  |  |  |
| COc1c(OC(C)=O)c(OC(C)=O)cc2c1-c1ccc(OC)c(=O)cc1C(NC(C)=O)CC2 (stereo not drawn) | > 95.5 µM | 0.0795 µM | > 100 µM | > 100 µM |  | 0.133 µM | > 48.1 µM | > 100 µM |  | > 100 µM |  |  | > 70 µM |  |  |  |  |  |  |
| COCC1C(=O)c2cc3c(cc2C12C=CC1(C=C2)OCCO1)OCO3 (stereo not drawn) |  | 22.7 µM | 30.4 µM | 6.5 µM | 28.9 µM | 38 µM | 29.7 µM | 4.54 µM |  |  |  |  | 2.96 µM |  |  |  |  |  |  |
| CCOC(=O)NC(=O)c1cn(CCCCCOC(=O)NCCCCCCNC(=O)OCCCCCn2cc(C(=O)NC(=O)OCC)c(=O)[nH]c2=O)c(=O)[nH]c1=O | > 100 µM | > 100 µM | > 100 µM | > 100 µM | > 100 µM | > 100 µM | > 100 µM | > 100 µM |  |  |  |  | > 100 µM |  |  |  |  |  |  |
